According to publication PMC3465347, “Regulation of NF-κB Activation through a Novel PI-3K-Independent and PKA/Akt-Dependent Pathway in Human Umbilical Vein Endothelial Cells” (PLoS ONE, 2012):

Test system: TNF-α-induced IKK-β activation in HUVECs
Assay: IKK-β activation in treated cells (immunoprecipitation, kinase assay)
Format: cell-based, human
Procedure: In brief, confluent HUVECs were incubated with or without MPTAG and were stimulated with TNF-α (10 ng/ml) for 15 mins. The cells were washed and lysed in Lysis buffer containing 50 mM HEPES, pH 7.6, 10% glycerol, 1 mM sodium orthovanadate, 100 mM NaCl, 1% NP-40, 1 mM EDTA and protease inhibitor cocktail and allowed to swell on ice for 45 mins. Following centrifugation at 13,000 rpm for 45 mins, the supernatants were collected as “total cell extracts” and stored at −70°C. Immunoprecipitation was performed as per the instructions of Protein G immunoprecipitation kit (Sigma Aldrich, USA). Endogenous IKK complexes were immunoprecipitated in the following reaction mixtures: 100–300 µg of total cell extracts were incubated with 2–4 µg anti-IKK-β or PKAα antibody in 100 µl 1× IP buffer. After incubation for 16 h at 4°C with constant shaking, 50 µl of activated protein G beads were added and the mixture was incubated under rotation for an additional 3 h at 4°C.
Kinase assay was performed as previously described. Immunoprecipitates from 100 µg of total cell extracts were used for kinase assays. The reaction mixture consisted of kinase buffer (20 mM Tris Cl, pH 7.6, 1 mM EDTA, 1 mM sodium orthovanadate, 20 mM MgCl2, 2 mM DTT), 2 µg GST-IκBα(1–54), 5 µM ATP and 1 µCi [γ ^32P] ATP in a volume of 30 µl. […]

For `CC(=O)OC[C@H]1O[C@@H](Oc2c(C)occc2=O)[C@H](OC(C)=O)[C@@H](OC(C)=O)[C@@H]1OC(C)=O` [MPTAG, 2-methyl-pyran-4-one-3-O-β-D-2′,3′,4′,6′-tetra-O-acetyl glucopyranoside], the “TNF-α-induced activation of IKK-β” value (pretreatment of cells, dose-dependent) was “appreciably suppressed” and the “protein levels of IKK-β” value (western blot) was “neither TNF-α nor MPTAG affected”.
